Patent US7378375B1, “Substituted pyridine herbicides” (Syngenta Crop Protection, Inc., priority 2000, dated 2008)

Assays:
[1] = test system: Monocotyledonous and dicotyledonous test plants; assay: Herbicidal action before emergence of the plants (pre-emergence action), greenhouse pot test, 9-level rating after 4 weeks; type: in vivo; set-up: key: 9-level scale: 1 = complete damage, 9 = no effect; details: 250 g/ha, rated after 4 weeks, 9-level scale
Protocol: Herbicidal Action Before Emergence of the Plants (Pre-Emergence Action)
(§1) Monocotyledonous and dicotyledonous test plants are sown in standard soil in pots. Immediately after sowing, the test substances are sprayed on at an optimum dosage (500 l of water/ha) as an aqueous suspension (prepared from a wettable powder (example F3, b) according to WO 97/34485) or emulsion (prepared from an emulsion concentrate (example F1, c) according to WO 97/34485). The test plants are then grown under optimum conditions in a greenhouse.
After a test period of 4 weeks, the test is evaluated using a 9-level scale of ratings (1=complete damage, 9=no effect). Ratings of 1 to 4 (in particular 1 to 3) mean good to very good herbicidal action.

[2] = test system: Monocotyledonous and dicotyledonous test plants; assay: Post-emergence herbicidal action, greenhouse pot test, sprayed at the 2- to 3-leaf stage, 9-level rating after 2 to 3 weeks; type: in vivo; set-up: key: 9-level scale: 1 = complete damage, 9 = no effect; details: 250 g/ha, rated after 2 to 3 weeks, 9-level scale
Protocol: Post-Emergence Herbicidal Action
as §1, with “grown” for “sown”, “At the 2- to 3-leaf stage of the test plants,” for “Immediately after sowing,”, “sprayed” for “sprayed on”, “at” for “at an”, “grown further” for “grown”
After a test period of 2 to 3 weeks, the test is evaluated using a 9-level scale of rating (1=complete damage, 9=no effect). Ratings of 1 to 4 (in particular 1 to 3) mean good to very good herbicidal action.

Structure (SMILES): COCc1nc(C(F)(F)F)ccc1C(=O)c1c(C)nn(C)c1O [A1-C2]
- Pre-emergence action rating, Abutilon [1]: 4
- Pre-emergence action rating, Amaranthus [1]: 3
- Pre-emergence action rating, Chenop. [1]: 1
- Pre-emergence action rating, Digitaria [1]: 3
- Pre-emergence action rating, Echino. [1]: 3
- Pre-emergence action rating, Panicum [1]: 6
- Post-emergence action rating, Abutilon [2]: 3
- Post-emergence action rating, Amaranth [2]: 2
- Post-emergence action rating, Chenop. [2]: 4
- Post-emergence action rating, Digitaria [2]: 8
- Post-emergence action rating, Echino. [2]: 4
- Post-emergence action rating, Ipopur. [2]: 3
- Post-emergence action rating, Panicum [2]: 7
- Post-emergence action rating, Xanth. [2]: 4

Structure (SMILES): COCc1nc(C(F)(F)F)ccc1C(=O)c1cnn(C)c1O [A1-C5]
- Pre-emergence action rating, Abutilon [1]: 2
- Pre-emergence action rating, Amaranthus [1]: 2
- Pre-emergence action rating, Chenop. [1]: 1
- Pre-emergence action rating, Digitaria [1]: 2
- Pre-emergence action rating, Echino. [1]: 1
- Pre-emergence action rating, Panicum [1]: 2
- Post-emergence action rating, Abutilon [2]: 2
- Post-emergence action rating, Amaranth [2]: 2
- Post-emergence action rating, Chenop. [2]: 1
- Post-emergence action rating, Digitaria [2]: 2
- Post-emergence action rating, Echino. [2]: 2
- Post-emergence action rating, Ipopur. [2]: 2
- Post-emergence action rating, Panicum [2]: 4
- Post-emergence action rating, Xanth. [2]: 4

Structure (SMILES): CCOCc1nc(C(F)(F)F)ccc1C(=O)c1cnn(C)c1O [A2-C5]
- Pre-emergence action rating, Abutilon [1]: 1
- Pre-emergence action rating, Amaranthus [1]: 1
- Pre-emergence action rating, Chenop. [1]: 1
- Pre-emergence action rating, Digitaria [1]: 2
- Pre-emergence action rating, Echino. [1]: 2
- Pre-emergence action rating, Panicum [1]: 1
- Post-emergence action rating, Abutilon [2]: 2
- Post-emergence action rating, Amaranth [2]: 1
- Post-emergence action rating, Chenop. [2]: 1
- Post-emergence action rating, Digitaria [2]: 2
- Post-emergence action rating, Echino. [2]: 2
- Post-emergence action rating, Ipopur. [2]: 2
- Post-emergence action rating, Panicum [2]: 1
- Post-emergence action rating, Xanth. [2]: 2

Structure (SMILES): CC(C)OCc1nc(C(F)(F)F)ccc1C(=O)c1cnn(C)c1O [A3-C5]
- Pre-emergence action rating, Abutilon [1]: 1
- Pre-emergence action rating, Amaranthus [1]: 1
- Pre-emergence action rating, Digitaria [1]: 2
- Pre-emergence action rating, Echino. [1]: 2
- Pre-emergence action rating, Panicum [1]: 1
- Post-emergence action rating, Abutilon [2]: 3
- Post-emergence action rating, Amaranth [2]: 3
- Post-emergence action rating, Chenop. [2]: 1
- Post-emergence action rating, Digitaria [2]: 4
- Post-emergence action rating, Echino. [2]: 3
- Post-emergence action rating, Ipopur. [2]: 3
- Post-emergence action rating, Panicum [2]: 3
- Post-emergence action rating, Xanth. [2]: 3

Structure (SMILES): COCOCc1nc(C(F)(F)F)ccc1C(=O)C1=C(O)C2CCC(C2)C1=O (centres unmarked) [A8-B52]
- Pre-emergence action rating, Abutilon [1]: 1
- Pre-emergence action rating, Amaranthus [1]: 1
- Pre-emergence action rating, Digitaria [1]: 1
- Pre-emergence action rating, Echino. [1]: 1
- Pre-emergence action rating, Panicum [1]: 1
- Post-emergence action rating, Abutilon [2]: 1
- Post-emergence action rating, Amaranth [2]: 1
- Post-emergence action rating, Chenop. [2]: 1
- Post-emergence action rating, Digitaria [2]: 1
- Post-emergence action rating, Echino. [2]: 1
- Post-emergence action rating, Ipopur. [2]: 1
- Post-emergence action rating, Panicum [2]: 1
- Post-emergence action rating, Xanth. [2]: 2

Structure (SMILES): COCCOCc1nc(C(F)(F)F)ccc1C(=O)C1=C(O)CCCC1=O [A10-B1]
- Pre-emergence action rating, Abutilon [1]: 1
- Pre-emergence action rating, Amaranthus [1]: 1
- Pre-emergence action rating, Chenop. [1]: 1
- Pre-emergence action rating, Digitaria [1]: 2
- Pre-emergence action rating, Echino. [1]: 2
- Pre-emergence action rating, Panicum [1]: 2
- Post-emergence action rating, Abutilon [2]: 2
- Post-emergence action rating, Amaranth [2]: 2
- Post-emergence action rating, Chenop. [2]: 1
- Post-emergence action rating, Digitaria [2]: 2
- Post-emergence action rating, Echino. [2]: 2
- Post-emergence action rating, Ipopur. [2]: 2
- Post-emergence action rating, Panicum [2]: 2
- Post-emergence action rating, Xanth. [2]: 2

Structure (SMILES): COCCOCc1nc(C(F)(F)F)ccc1C(=O)C1=C(O)CCC(C)(C)C1=O [A10-B3]
- Pre-emergence action rating, Abutilon [1]: 1
- Pre-emergence action rating, Amaranthus [1]: 1
- Pre-emergence action rating, Chenop. [1]: 1
- Pre-emergence action rating, Digitaria [1]: 1
- Pre-emergence action rating, Echino. [1]: 1
- Pre-emergence action rating, Panicum [1]: 1
- Post-emergence action rating, Abutilon [2]: 1
- Post-emergence action rating, Amaranth [2]: 1
- Post-emergence action rating, Chenop. [2]: 1
- Post-emergence action rating, Digitaria [2]: 1
- Post-emergence action rating, Echino. [2]: 3
- Post-emergence action rating, Ipopur. [2]: 2
- Post-emergence action rating, Panicum [2]: 1
- Post-emergence action rating, Xanth. [2]: 1

Structure (SMILES): COCCOCc1nc(C(F)(F)F)ccc1C(=O)C1=C(O)C(C)(C)CC(C)C1=O (centres unmarked) [A10-B4]
- Pre-emergence action rating, Abutilon [1]: 3
- Pre-emergence action rating, Amaranthus [1]: 1
- Pre-emergence action rating, Chenop. [1]: 1
- Pre-emergence action rating, Digitaria [1]: 3
- Pre-emergence action rating, Echino. [1]: 1
- Pre-emergence action rating, Panicum [1]: 2
- Post-emergence action rating, Abutilon [2]: 1
- Post-emergence action rating, Amaranth [2]: 2
- Post-emergence action rating, Chenop. [2]: 1
- Post-emergence action rating, Digitaria [2]: 1
- Post-emergence action rating, Echino. [2]: 2
- Post-emergence action rating, Ipopur. [2]: 1
- Post-emergence action rating, Panicum [2]: 1
- Post-emergence action rating, Xanth. [2]: 2

Structure (SMILES): CCOC(=O)C1(C)CCC(=O)C(C(=O)c2ccc(C(F)(F)F)nc2COCCOC)=C1O (centres unmarked) [A10-B14]
- Pre-emergence action rating, Abutilon [1]: 1
- Pre-emergence action rating, Amaranthus [1]: 1
- Pre-emergence action rating, Chenop. [1]: 1
- Pre-emergence action rating, Digitaria [1]: 6
- Pre-emergence action rating, Echino. [1]: 3
- Pre-emergence action rating, Panicum [1]: 3
- Post-emergence action rating, Abutilon [2]: 2
- Post-emergence action rating, Amaranth [2]: 2
- Post-emergence action rating, Chenop. [2]: 1
- Post-emergence action rating, Digitaria [2]: 2
- Post-emergence action rating, Echino. [2]: 3
- Post-emergence action rating, Ipopur. [2]: 2
- Post-emergence action rating, Panicum [2]: 2
- Post-emergence action rating, Xanth. [2]: 2

Structure (SMILES): COCCOCc1nc(C(F)(F)F)ccc1C(=O)C1=C(O)CCC2(CC2)C1=O [A10-B17]
- Pre-emergence action rating, Abutilon [1]: 4
- Pre-emergence action rating, Amaranthus [1]: 2
- Pre-emergence action rating, Chenop. [1]: 1
- Pre-emergence action rating, Digitaria [1]: 1
- Pre-emergence action rating, Echino. [1]: 1
- Pre-emergence action rating, Panicum [1]: 1
- Post-emergence action rating, Abutilon [2]: 2
- Post-emergence action rating, Amaranth [2]: 2
- Post-emergence action rating, Chenop. [2]: 1
- Post-emergence action rating, Digitaria [2]: 1
- Post-emergence action rating, Echino. [2]: 2
- Post-emergence action rating, Ipopur. [2]: 2
- Post-emergence action rating, Panicum [2]: 2
- Post-emergence action rating, Xanth. [2]: 2

Structure (SMILES): COCCOCc1nc(C(F)(F)F)ccc1C(=O)C1=C(O)C(C)(C)ON(C)C1=O [A10-B25]
- Pre-emergence action rating, Abutilon [1]: 1
- Pre-emergence action rating, Amaranthus [1]: 1
- Pre-emergence action rating, Chenop. [1]: 1
- Pre-emergence action rating, Digitaria [1]: 1
- Pre-emergence action rating, Echino. [1]: 2
- Pre-emergence action rating, Panicum [1]: 1
- Post-emergence action rating, Abutilon [2]: 3
- Post-emergence action rating, Amaranth [2]: 2
- Post-emergence action rating, Chenop. [2]: 1
- Post-emergence action rating, Digitaria [2]: 4
- Post-emergence action rating, Echino. [2]: 4
- Post-emergence action rating, Ipopur. [2]: 3
- Post-emergence action rating, Panicum [2]: 3
- Post-emergence action rating, Xanth. [2]: 3

Structure (SMILES): COCCOCc1nc(C(F)(F)F)ccc1C(=O)C1=C(O)C(C)(C)C(=O)C(C)(C)C1=O [A10-B39]
- Pre-emergence action rating, Abutilon [1]: 1
- Pre-emergence action rating, Amaranthus [1]: 1
- Pre-emergence action rating, Chenop. [1]: 1
- Pre-emergence action rating, Digitaria [1]: 1
- Pre-emergence action rating, Echino. [1]: 1
- Pre-emergence action rating, Panicum [1]: 1
- Post-emergence action rating, Abutilon [2]: 1
- Post-emergence action rating, Amaranth [2]: 1
- Post-emergence action rating, Chenop. [2]: 1
- Post-emergence action rating, Digitaria [2]: 3
- Post-emergence action rating, Echino. [2]: 3
- Post-emergence action rating, Ipopur. [2]: 2
- Post-emergence action rating, Panicum [2]: 1
- Post-emergence action rating, Xanth. [2]: 2

Structure (SMILES): Cn1ncc(C(=O)c2ccc(C(F)(F)F)nc2COCC(F)(F)F)c1O [A834-C5]
- Pre-emergence action rating, Abutilon [1]: 1
- Pre-emergence action rating, Amaranthus [1]: 2
- Pre-emergence action rating, Digitaria [1]: 3
- Pre-emergence action rating, Echino. [1]: 1
- Pre-emergence action rating, Panicum [1]: 1

Structure (SMILES): COCC(Br)COCc1nc(C(F)(F)F)ccc1C(=O)C1=C(O)C2CCC(C2)C1=O (centres unmarked) [A853-B52]
- Pre-emergence action rating, Abutilon [1]: 1
- Pre-emergence action rating, Amaranthus [1]: 1
- Pre-emergence action rating, Chenop. [1]: 2
- Pre-emergence action rating, Digitaria [1]: 1
- Pre-emergence action rating, Echino. [1]: 2
- Pre-emergence action rating, Panicum [1]: 1

Structure (SMILES): CN(Cc1nc(C(F)(F)F)ccc1C(=O)c1cnn(C)c1O)S(C)(=O)=O [A864-C5]
- Post-emergence action rating, Abutilon [2]: 2
- Post-emergence action rating, Amaranth [2]: 1
- Post-emergence action rating, Chenop. [2]: 1
- Post-emergence action rating, Digitaria [2]: 2
- Post-emergence action rating, Echino. [2]: 2
- Post-emergence action rating, Ipopur. [2]: 2
- Post-emergence action rating, Panicum [2]: 1
- Post-emergence action rating, Xanth. [2]: 2
